Laboratory results from patent US6787356B1, “Cell expansion system for use in neural transplantation” (The United States of America as represented by the …, priority 1998, dated 2004).

Key:
[1] = test system: E12 mesencephalic precursors; test: Dopaminergic differentiation of long-term expanded mesencephalic precursors, TH-ir cell count per well; type: cell-based, rat; settings: for effect of antioxidants on dopaminergic cell number: FIG. 5, FIG. 6
Description: Ascorbic acid was obtained from SIGMA (A-1417: Lot 105H0138) and used at various concentrations ranging from 1 nM-1 mM to obtain a dose-response curve. The effect of ascorbic acid on dopaminergic differentiation of long-term expanded mesencephalic precursors was tested during early and late proliferation as well as during cell differentiation.
Briefly, E12 mesencephalic precursors were proliferated for 12-14 days in vitro with 20 ng/ml bFGF (average expansion factor 40-200 fold) followed by 4-7 days of differentiation upon bFGF withdrawal and exposure to the various differentiation agents refers to the experimental assay in general. We tested the effects of many possible differentiation agents such as NGF, BDNF, NT3, NT4/5, GDNF, SHH, FGF8, interleukin1, Neurturin, cGMP and many others.
Cells were treated with 100 uM ascorbic acid. Ascorbic acid was dissolved in PBS with 0.1% bovine serum albumin at 100 mM stock solution. It was then used in 1:1000 dilution by adding it directly into the culture medium Cells were then fixed in 0.15% picric acid/4% paraformaldehyde and stained for tyrosine-hydroxylase (PelFreeze P40101-0). The number of TH-ir cells per well were scored using a stereological counting frame.
A dose response curve of the effect of stereoisomer D-iso-ascorbic acid was established using D-iso Ascorbic acid (I-0502 SIGMA). D-iso-ascorbic acid was used with the same protocol as L-ascorbic acid regarding stock solution, concentrations and mode of application. D-iso ascorbic acid has the same anti-oxydative properties but different other biological properties than ascorbic acid.

[2] = test system: mesencephalic precursors expanded with bFGF for 11 days; settings: dopamine 1 nM-1 mM; cAMP 1 mM; DMEM/F12/N2
[3] = test system: ventral mesencephalon cells of E12 rat embryos; test: Tissue culture expansion of mesencephalic precursors with bFGF; type: cell-based; settings: from 800×10^3 cells; 10-20 ng bFGF/ml medium daily; N=12
Description: Tissue was obtained from the ventral mesencephalon of E12 rat embryos (Sprague Dawley, plug day=day 0,) as described by Studer et al. in Current Protocols in Neuroscience (eds McKay, R. D. & Gerfen, C. R.) John Wiley & Sons Inc., New York, (1997).
Tissue pieces were spun in a centrifuge at 209 g for 5 minutes and mechanically triturated to a quasi single cell suspension in HBSS and counted. 5 ml of cell suspension at a concentration of 150-200×10^3 cells/ml was plated on a 10 cm culture dish containing DMEM/F12/N2 medium (Bottenstein, J. E. & Sato, G. H. Growth of a rat neuroblastoma cell line in serum-free supplemented medium. Proc.Natl.Acad.Sci.USA 76, 514-517 (1979) (modified according to Johe, K. K., Hazel, T. G., Müller, T., Dugich-Djordjevic, M. M. & McKay, R. D. G. Single factors direct the differentiation of stem cells from the fetal and adult central nervous system. Genes and Development 10, 3129-3140 (1996)) that had been previously coated with polyornithine (15 ug/ml) and fibronectin (1 ug/ml).
bFGF was added to the culture medium on a daily basis to a final concentration of 10-20 ng bFGF/ml medium. The medium was changed every other day.
Additionally, after treatment with bFGF all surviving cells were immunoreactive for the nestin intermediate filament a marker for immature neuroepithelial precursors. […]

[4] = test system: differentiated mesencephalic precursor culture; test: Oxidative stress assays (lipid peroxydation, H2O2, oxidative stress marker staining); type: cell-based, rat; settings: data not shown
Description: Lipid peroxydation is a colorimetric assay (OXIS BIOXYTECH® LPO-568™; Oxis International Inc.) and was used according to the specifications of the manufacturer. H2O2 assay measures the conversion of 2′,7′ dicholorofluorescin diacetate (Molecular Probes d-399) into 2′,7′ dicholorofluorescin catalyzed by H2O2. The assay was performed according to the specifications of the manufacturer. Immunohistochemistry for oxidative stress markers by the DAB-peroxidase technique was performed on cells differentiated in the presence or absence of ascorbic acid, glutathione or […] plus ebselin.

[5] = test system: bFGF expanded precursor derived TH+ neurons; test: Dopamine release of precursor derived TH+ neurons, reverse phase HPLC with electrochemical detection; type: cell-based, rat; settings: conditioned medium, buffer solution, buffer + 56 mM KCl; FIG. 7 and 8
Description: To test the biochemical function of precursor derived tyrosine hydroxylase expressing (TH+) neurons, the supernatant was tested for dopamine release using reverse phase HPLC with electrochemical detection. Dopamine levels were assessed in conditioned medium (24 hours of incubation), HBSS buffer (15 minutes), HBSS buffer +56 mM KCl. Dopamine was subsequently extracted by aluminum absorption and measured by reverse phase HPLC with electrochemical detection.

[6] = test system: expanded and differentiated mesencephalic precursors; test: KCl evoked dopamine release of differentiated expanded precursors, HPLC; type: cell-based, rat
Description: Tissue culture was prepared as described in Example 1. The growth medium of expanded precursors from 3 independent culture series was collected after 5-7 days of differentiation under serum-free conditions and immediately stabilized by adding 88 μl of 85% orthophosphoric acid and 4.4 mg of metabisulfite to each sample ml. Additional cultures of the same series were placed in 5 ml Hank's basic salt solution (HBSS) for […] at 37° C. either under basal conditions (HBSS only) or under stimulation with 56 mM KCl. 56 mM KCl was added to assay evoked release, i.e., dopamine release in response to depolarization by KCl (depolarization by KCl leads to release of synaptic vesicles in neurons). This provides a more specific test than release in HBSS where synaptic release is not directly tested.
Dopamine staining was carried out on cultures using dopamine polyclonal 1:500 (Chemicon). The cultures were fixed in 5% glutaraldehyde and 1% metabisulfite in Tris buffer and then kept in metabisulfite containing solutions prior to incubation in the secondary antibody. Dopamine was extracted by aluminum adsorption as described by Studer et al. (1996) Brain Res.Bull. 41, 143-150. […] No dopamine was detected in unconditioned control medium and HBSS.

[7] = test system: expanded mesencephalic precursors differentiated as free floating reaggregates; test: Reaggregation system (roller drum) differentiation, immunohistochemistry of reaggregates; type: cell-based, rat; settings: for total number of TH-ir cells/sphere in serum-supplemented medium: GDNF, BDNF, NT4/5 10 ng/ml, SHH 2.5 μg/ml, data not shown
Description: Cells were cultured as described in Example 1 and differentiated as free floating aggregates in a medium containing 10% fetal bovine serum (FBS) and maintained in a roller drum system. The cell suspension (200,000 cells/ml) was distributed in 15 ml Falcon tubes (1 ml/tube) and placed in a roller drum (Bellco) and rotated at a speed of 1-4 revolutions per minute and a temperature of 37° C. in a dry incubator (no additional humidity) in an atmosphere containing 5% CO2.
Medium in all these experiments described in this section was Neurobasal/B27 as described above. We tested the effect of GDNF, BDNF, SHH in the presence and in the absence of 10% fetal bovine serum (always with Neurobasal/B27 medium as a “basal medium”)
After 7 days, the test tubes were removed from the roller drum and the reaggregation of the cells was examined immunohistochemistry after sectioning the cells (see below). […] Reaggregates were fixed in 4% paraformalehyde/0.15 picric acid in PBS for 30-60 minutes at room temperature, equilibrated in 30% sucrose, cut into 20 um thick sections on a freezing microtome and adhered to a gelatine precoated glass carrier according to standard histological guidelines.
The differentiation medium for reaggregate cultures consisted of Neurobasal®/2% B27® (Gibco, Life Technologies) with or without fetal bovine serum (FBS; 10%, Gibco), glial derived neurotrophic factor (GDNF; 10 ng/ml; Peprotech), brain derived neurotrophic factor (BDNF; 10 ng/ml; Peprotech), neurotrophin 4/5 (NT4/5; 10 ng/ml; Peprotech), SHH (2.5 μg/ml; kindly provided by Dr. Thomas Muller, at the Labrotory of Molecular Biology, currently at the Max Delbrueck Univ. in Berlin; SHH is now commercially avail. fro R&D).
Using standard immunohistochemical procedures known to those of skill in the art, the following antibodies were used to examine the neuronal phenotypes present in differentiated aggregates: GABA polyclonal 1:2000 (SIGMA), serotonin polyclonal 1:8000 (SIGMA), ChAT polyclonal 1:500 (Chemicon), GFAP polyclonal 1:100 (Chemicon), GalC monoclonal 1:50 (Boehringer-Mannheim),
Total graft volume was estimated using the Cavalieri's estimator as described by Gundersen et al. (1988) APIMS 96, 379-394. TH-ir cells were counted within the outlined graft area as used for volume estimation. Uniform randomly chosen sections of individual reaggregates were analyzed for the total number of TH-ir cells by means of a stereological grid (fractionator). Conventional and confocal images were obtained with Axiophot and Axiovert microscopes respectively (Zeiss). Confocal image stacks were acquired by single and dual wavelength excitation at 488 and 568 nm. […] The effect of serum and growth factors was analyzed using ANOVA and Dunnett posthoc comparisons. […]

## N[C@@H](CCC(=O)N[C@@H](CS)C(=O)NCC(=O)O)C(=O)O [glutathione]
[1]
  effect of antioxidants on dopaminergic cell number: none of the antioxidants tested influenced dopaminergic cell number

## O=C1O[C@H]([C@H](O)CO)C(O)=C1O [D-iso ascorbic acid, D-iso-ascorbic acid]
[1]; optimum concentration of 100 μM
  number of dopaminergic neurons, lower than in the ascorbic acid group: 48%

## CC(=O)N[C@H](CS)C(=O)O [D-acetylcystein]
[1]
  effect of antioxidants on dopaminergic cell number: none of the antioxidants tested influenced dopaminergic cell number

## NCCc1ccc(O)c(O)c1 [dopamine]
[2]
  additional effect on yield of dopaminergic neurons in combination with ascorbic acid (100 uM): no significant additional effect

## O=c1c2ccccc2[se]n1-c1ccccc1 [ebselin]
[1]
  effect of antioxidants on dopaminergic cell number: none of the antioxidants tested influenced dopaminergic cell number

## bFGF: basic fibroblast growth factor, added to proliferating medium to expand precursor cells
[3]
  cell number after 1 week of treatment with bFGF: 7,417×10^3+/−1,066×10^3 cells

## O=C1O[C@H]([C@@H](O)CO)C(O)=C1O [ascorbic acid]
[4]
  differences to control in lipid peroxydation, H2O2 levels and staining intensity for oxydative stress markers: No significant differences
[1]; 100 uM, 12-14 days expansion, 4-7 days differentiation
  yield of dopaminergic neurons compared with other differentiation agents tested: most effective agent of all agents tested
[1]; FIG. 6
  effect on dopaminergic yield, treatment during cell differentiation (P1 diff.): acts mostly during the differentiation phase
  effect on dopaminergic yield, treatment during early expansion (Po exp.): small improvement in dopaminergic yield
  effect on dopaminergic yield, treatment during late expansion (P1 exp.): slightly negative effect
[1]; during cell differentiation, range 1 nM-1 mM, FIG. 5
  concentration of maximal effect on TH-ir cell number (dose-response): 100 µM
[5]
  dopamine levels after treatment, long-term expanded precursors (P1): significant increase
  dopamine levels after treatment, short term expanded precursors (Po): significant increase

## [Cl-].[K+] [KCl]
[6]; 56 mM KCl in HBSS for 25 minutes vs HBSS only
  increase in dopamine levels in the supernatant: 3-4 fold
[6]; 56 mM KCl in HBSS for 25 minutes, N=3
  dopamine level in the supernatant, evoked release: 572+/−145 pg dopamine/ml

B1: GDNF: glial derived neurotrophic factor, Peprotech (protein, UniProt P39905 78-211, looked up)
Glial cell line-derived …: SPDKQMAVLPRRERNRQAAAANPENSRGKGRRGQRGKNRGCVLTAIHLNVTDLGLGYETKEELIFRYCSGSCDAAETTYDKILKNLSRNRRLVSDKVGQACCRPIAFDDDLSFLDDNLVYHILRKHSAKRCGCI
[7]; GDNF 10 ng/ml, N=8, p<0.05 vs control
  TH-ir cell yield under serum-free conditions: 3451+/−621
[7]
  total number of TH-ir cells/sphere in serum-supplemented medium: did not cause a significant increase

B2: BDNF: brain derived neurotrophic factor, Peprotech (protein, UniProt P23560 19-247, looked up)
Neurotrophic factor BDNF …: APMKEANIRGQGGLAYPGVRTHGTLESVNGPKAGSRGLTSLADTFEHVIEELLDEDQKVRPNEENNKDADLYTSRVMLSSQVPLEPPLLFLLEEYKNYLDAANMSMRVRRHSDPARRGELSVCDSISEWVTAADKKTAVDMSGGTVTVLEKVPVSKGQLKQYFYETKCNPMGYTKEGCRGIDKRHWNSQCRTTQSYVRALTMDSKKRIGWRFIRIDTSCVCTLTIKRGR
[7]
  total number of TH-ir cells/sphere in serum-supplemented medium: did not cause a significant increase

B3: NT4/5: neurotrophin 4/5, Peprotech (protein, UniProt P34130 81-210, looked up)
Neurotrophin-4: GVSETAPASRRGELAVCDAVSGWVTDRRTAVDLRGREVEVLGEVPAAGGSPLRQYFFETRCKADNAEEGGPGAGGGGCRGVDRRHWVSECKAKQSYVRALTADAQGRVGWRWIRIDTACVCTLLSRTGRA
[7]
  total number of TH-ir cells/sphere in serum-supplemented medium: did not cause a significant increase
